Each structure is given as a SMILES string.

This passage reports RP-LC retention time results from the METLIN SMRT retention time set (Domingo-Almenara et al. 2019).

This data set in a line: gradient 5% acetonitrile 3 min, to 50% in 2 min, to 85% in 15 min, held 3 min, 100 µL/min. The conditions noted are these: column: Zorbax Extend-C18 2.1 x 50 mm; eluents: water / acetonitrile, 0.1% formic acid. In short, it runs like this:
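Each retention time is based on an adduct peak selected computationally and verified by manual inspection. Measurements used HPLC–quadrupole time-of-flight mass spectrometry in positive and negative ionization mode on mixtures of ~100 pure standards. Chromatography ran on a Zorbax Extend-C18 column (2.1 × 50 mm, 1.8 μm) at 100 μL/min with water and acetonitrile, each containing 0.1% formic acid, and dead and dwell volumes of 40 μL and 900 μL.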
In turn, `CS(=O)(=O)c1nc2ccc(NS(=O)(=O)c3ccc4c(c3)CCC4)cc2s1` yielded an RP-LC retention time of 987 s.

The compound `CCC(=O)N1CC(c2nc(-c3ccc(F)cc3)no2)C2(CCOCC2)C1` (stereo not given) registered an RP-LC retention time of 800 s.

Turning to `Cc1nn(-c2ccc(F)cc2)c2nc(N3CCCC(C(=O)NC4CCCCC4)C3)sc12` (stereo not given), the RP-LC retention time was determined as 1190 s.

`COc1ccc(NC(=O)N2CCC(n3c(-c4ccc(OC)cc4)nc4cccnc43)C2)cc1` (stereo not given): the RP-LC retention time is 709 s.

For `Cc1cc(=O)n(CC(=O)Nc2ccc(F)cc2)c(N2CCCCC2)n1`, the RP-LC retention time is 635 s.

`COc1ccc2c(c1)C1CC(C)(O2)N(C)C(=O)C1S(=O)(=O)c1ccc(C)c(C)c1` (stereo not given) came in with an RP-LC retention time of 1030 s.

In turn, `Cc1cc(S(=O)(=O)N2C[C@@H](F)C[C@H]2C(=O)N2CCCCC2)ccc1F` showed an RP-LC retention time of 786 s.

On to `C[C@H](NC(=O)[C@H](Cc1ccccc1)NC(=O)OCc1ccccc1)C(=O)CF`, for which the RP-LC retention time came to 824 s.

Consider `CC(=O)N1CCc2nn(CC(=O)Nc3ccc(F)c(F)c3)c(=O)cc2C1`, for which the RP-LC retention time was determined as 644 s.

With `Cc1ccc(-c2csc(NC(=O)c3sc(-c4ccccc4)nc3C)n2)cc1`, the RP-LC retention time is 1300 s.

`CCC(C)C(NC(=O)c1cccc(N(C)C)c1)C(=O)Nc1nc2ccccc2[nH]1` (stereo not given): the RP-LC retention time was 703 s.

For the compound `O=S(=O)(c1cc(-c2nnc(C3CCC3)o2)co1)N1CCN(c2ccc(F)cc2)CC1`, the RP-LC retention time was found to be 1250 s.

As to `CCCCNC(=O)c1cn(-c2ccc(NC(=O)CC)cn2)cn1`, the RP-LC retention time came to 678 s.

For the compound `O=C(NC1CCCCCC1)C1CCN(Cc2cc3ccccc3n2Cc2cccc(F)c2)CC1`, the RP-LC retention time stood at 848 s.

`CCn1cc(-c2nc(C)c(C(=O)Nc3ccc(F)c(F)c3)s2)c2cccnc21` had an RP-LC retention time of 1070 s.

Compound `CCOc1ccc(-c2noc(C3CC(=O)N(c4ccc(C)cc4)C3)n2)cc1` (stereo not given) returned an RP-LC retention time of 1080 s.

The compound `Cc1c(Cl)cccc1Nc1c(-c2ccc(O)cc2)nc2ncccn12` yielded an RP-LC retention time of 705 s.

Regarding `Cc1ccc(NC(=O)Cn2nc(N3CCCC3)c3ccccc3c2=O)cc1C`, the RP-LC retention time was determined as 1000 s.

The compound `CC(C)(C)c1csc(-c2csc(S(=O)(=O)Nc3ccc(F)cc3)c2)n1` yielded an RP-LC retention time of 1220 s.

`CCc1noc([C@@H]2CC(F)(F)CN2C(=O)Cn2ccnc2)n1`: the RP-LC retention time is 570 s.

With `CC1=C(c2ccc(C)c(C)c2)S(=O)(=O)N=C1N1CCC(NC(=O)C2CCCO2)CC1` (stereo not given), the RP-LC retention time worked out at 788 s.

`CCOc1ccc(NC(=O)NCC2CCOCC2)cc1` showed an RP-LC retention time of 685 s.

Consider `CCc1cccc(C)c1NC(=O)Cn1cnc2nc(N3CCCC(C(=O)NC4CC4)C3)sc2c1=O` (stereo not given), for which the RP-LC retention time was determined as 694 s.

In turn, `COc1ccc(C(=O)N2CCN(c3cc(C(C)C)n4cnnc4n3)CC2)c(OC)c1` gave an RP-LC retention time of 609 s.

`COCC(=O)NC1CCC12CCN(Cc1ccc(C)o1)CC2` (stereo not given) had an RP-LC retention time of 583 s.

With `CCC(C)NC(=O)c1cnn(-c2cc(-c3nc(C(C)(C)C)no3)ccn2)c1C` (stereo not given), the RP-LC retention time was 711 s.

`Cc1csc(-c2cc(S(=O)(=O)NCc3cccs3)c(C)n2C)n1` had an RP-LC retention time of 924 s.

Consider `COC(=O)c1c(NC(=O)c2ccc([N+](=O)[O-])o2)sc(Cc2ccc3c(c2)OCO3)c1C`, for which the RP-LC retention time is 1130 s.

`CCCCN1CCN(C(=O)C2c3ccccc3CCN2C(C)=O)CC1` (stereo not given): the RP-LC retention time was determined as 585 s.

For `Cc1ccc2c(c1)N(CCCC(=O)NCCCN1CC(C)CC(C)C1)C(=O)CO2` (stereo not given), the RP-LC retention time amounted to 674 s.

`COc1ccc(N2CC(c3noc(-c4cc(Cl)ccc4F)n3)CC2=O)cc1` (stereo not given): the RP-LC retention time came to 1050 s.

`Cc1cc(C)c(S(=O)(=O)N2CCc3nc[nH]c3C2)cc1C` yielded an RP-LC retention time of 643 s.

Take `Cc1cc(NC(=O)C2CC2)nn1Cc1ccccc1`: the RP-LC retention time was found to be 746 s.

In turn, `Cc1ccc(Cl)cc1NC(=O)C1CC(=O)N(CCc2c[nH]c3ccc(F)cc23)C1` (stereo not given) gave an RP-LC retention time of 875 s.

Regarding `Cc1ccccc1Cn1cc(-c2ccncc2)cc1C(=O)N1CCOCC1`, the RP-LC retention time was determined as 621 s.

`Cc1ccc2nc(C)cc(C(=O)NC3CC3)c2c1` showed an RP-LC retention time of 586 s.

Take `Cc1ccc2c(C(=O)O)cc(NC(=O)C3CCC3)cc2n1`: the RP-LC retention time turned out to be 574 s.

In turn, `CCNC(=O)Nc1ccc(OCC(=O)NC2CCN(Cc3ccccc3)CC2)nc1` registered an RP-LC retention time of 584 s.

The compound `COc1cccc(Nc2nc(-c3ccc(I)cc3)cs2)c1` displayed an RP-LC retention time of 1270 s.

Consider `CCCNC(=O)c1cc(-c2ccc(F)cc2)cn1C`, for which the RP-LC retention time worked out at 930 s.

As for `FC(F)(F)c1cccc(CN2CCCN(c3ncccc3-c3nc(C4CC4)no3)CC2)c1`, the RP-LC retention time was found to be 765 s.

For `O=C(NCc1ccccc1)c1c(O)c2cccnc2n(-c2cccc(F)c2)c1=O`, the RP-LC retention time was 1160 s.

`COc1ccccc1N1CCN(S(=O)(=O)c2cc3c(s2)CCN(C(C)=O)C3)CC1` came in with an RP-LC retention time of 838 s.

In turn, `CNC(=O)N1CCC(C2CCN(C(=O)CSC)C2)CC1` (stereo not given) yielded an RP-LC retention time of 608 s.

`CCOc1ccc(-c2nc(-c3ccc4c(c3)oc(=O)n4C(C)C)no2)cc1OCC` registered an RP-LC retention time of 1260 s.

Compound `CCc1ccc(Oc2cc(N3CCC(C(=O)NCCCOC)CC3)ncn2)cc1` showed an RP-LC retention time of 578 s.

The compound `CCN(CC)CCNC(=O)c1c(C)[nH]c(/C=C2\C(=O)Nc3ccc(F)cc32)c1C` registered an RP-LC retention time of 700 s.

As for `CC(=O)N1c2ccc(S(=O)(=O)N3CCCCC3)cc2CC1C(=O)Nc1ccc(C)cc1C` (stereo not given), the RP-LC retention time is 868 s.

For the compound `Cc1ccc(-c2csc(-n3nc(C)c(CC(=O)N4CCCCCC4)c3C)n2)cc1`, the RP-LC retention time was found to be 1270 s.

For the compound `Cn1nccc1C(=O)N1CCC(c2noc(-c3ccncc3)n2)C1` (stereo not given), the RP-LC retention time came to 642 s.

`CN(CC(=O)Nc1ccc(S(N)(=O)=O)cc1)c1nc2ccccc2s1` gave an RP-LC retention time of 662 s.

Turning to `Cc1cccc(-c2noc(C3CCCN3C(=O)NCc3ccc(F)cc3)n2)c1` (stereo not given), the RP-LC retention time came out at 974 s.

In turn, `Cc1ccccc1-c1noc(C2CCCN2C(=O)Nc2cc(F)ccc2F)n1` (stereo not given) registered an RP-LC retention time of 1080 s.

As for `CC1(C)C(=O)N(CC(=O)Nc2ccc3c(c2)OCO3)c2ccccc21`, the RP-LC retention time stood at 823 s.

Compound `COc1ccc(Nc2c(-c3ccc(C(=O)O)cc3)nc3cnccn23)cc1OC` returned an RP-LC retention time of 663 s.

On to `Cc1cc(C)cc(NC(=O)N2CCC(n3cnc4ccc(C)cc4c3=O)CC2)c1`, for which the RP-LC retention time is 838 s.

For `CCc1cccc(NC(=O)Cn2ncc3c(N4CCN(c5ccccn5)CC4)ncnc32)c1`, the RP-LC retention time was 655 s.

The compound `O=S(=O)(c1ccc2c(c1)CCCC2)N1CCCC1c1nc(-c2cccc(Cl)c2)no1` (stereo not given) came in with an RP-LC retention time of 1410 s.

On to `CCc1cccc(C)c1Nc1c(-c2ccccc2)nc2cnccn12`, for which the RP-LC retention time was determined as 947 s.

Take `O=C(NC1CCCCCC1)c1cn(-c2ccc(-c3nc(C4CC4)no3)cn2)cn1`: the RP-LC retention time amounted to 1010 s.

`O=C(c1cc2c(s1)CCC(C(=O)N1CCN(c3ccccn3)CC1)C2)N1CCCCC1` (stereo not given): the RP-LC retention time came to 621 s.

`Cc1cc(N2CCN(S(=O)(=O)c3cccc(C(F)(F)F)c3)CC2)nc(NC2CCCCC2)n1` gave an RP-LC retention time of 890 s.

Turning to `O=C(c1ccc2c(c1)OCO2)N1CCN(c2cc(-c3ccccc3)[nH]n2)CC1`, the RP-LC retention time came to 733 s.

Consider `O=C(Cn1cccc(-c2nc(-c3ccc(F)cc3)no2)c1=O)NCC1CCCO1` (stereo not given), for which the RP-LC retention time is 706 s.

In the case of `Cc1cccc(CNC(=O)c2cn3cc(C)ccc3n2)c1`, the RP-LC retention time was found to be 708 s.

As for `CCNC(=O)c1cc(C)on1`, the RP-LC retention time amounted to 596 s.

The compound `CN1CCN(C(=O)c2csc(N3CCN(c4cccc(Cl)c4)CC3)n2)CC1` returned an RP-LC retention time of 690 s.

Turning to `CCCN(C(C)=O)c1nc(-c2ccc(Br)cc2)cs1`, the RP-LC retention time is 1240 s.

`Cc1cc(NC(=O)CN2C(=O)c3ccccc3C2=O)n(-c2ccccc2)n1` had an RP-LC retention time of 709 s.

`COc1ccc(CCNC(=O)CN2C(=O)c3cccc4cccc(c34)C2=O)cc1OC`: the RP-LC retention time amounted to 725 s.

As for `Cc1cc(C(=O)Nc2nnc(-c3cccs3)o2)no1`, the RP-LC retention time was 632 s.

The compound `O=C(Nc1ccc2nncn2c1)Nc1ccc(F)cc1F` registered an RP-LC retention time of 680 s.

Compound `O=C(CCn1cnc2cc(-c3noc(Cc4cccs4)n3)ccc21)N1CCCC1` yielded an RP-LC retention time of 691 s.

Compound `CCNC(=O)C1CCN(c2nc3ccc(-c4cccs4)nc3s2)CC1` came in with an RP-LC retention time of 815 s.

Regarding `Cc1cc(C(=O)Nc2nnc(Cc3ccc4c(c3)OCO4)o2)c(C)o1`, the RP-LC retention time was determined as 722 s.

In turn, `CCCN(CCC)Cc1ccc(CNC(=O)C2CCCN(c3nnc(N4CCCC4=O)s3)C2)o1` (stereo not given) yielded an RP-LC retention time of 614 s.

`Cc1ccc(C)c(N2CCN(C(=O)C3CCN(c4nccnc4Sc4ccccc4)CC3)CC2)c1` returned an RP-LC retention time of 1320 s.

`O=C(CN1C(=O)C2CCCCN2c2ccc(S(=O)(=O)N3CCCCC3)cc21)NC1CCCC1` (stereo not given) displayed an RP-LC retention time of 980 s.

In the case of `Cc1[nH]c(=O)[nH]c(=O)c1CC(=O)NCCn1nc(-c2ccco2)ccc1=O`, the RP-LC retention time is 552 s.

As to `Cc1nc(C(=O)NCc2cccc(Cl)c2)c(C)o1`, the RP-LC retention time was 871 s.
